Results as given in patent US9670227B2, “Thienopyrimidine derivatives, a process for their preparation and pharmaceutical compositions containing them” (LES LABORATOIRES SERVIER, priority 2013, dated 2017).

Biological target: Mcl-1 protein (UniProtKB primary accession number: Q07820) (Homo sapiens, UniProt Q07820)
Assay: Inhibition of Mcl-1 by fluorescence polarisation, Method 1
Format: binding
Conditions: @ 10 uM test compound
Method in brief: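 Fluorescence polarisation competition with an 11-point compound dilution series (final DMSO 5%). Mcl-1 protein at 5 nM and fluorescein-labelled ligand at 1 nM (final) in 10 mM HEPES, 150 mM NaCl, 0.05% Tween 20, pH 7.4.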

Mcl-1 protein, sequence (Q07820 whole entry): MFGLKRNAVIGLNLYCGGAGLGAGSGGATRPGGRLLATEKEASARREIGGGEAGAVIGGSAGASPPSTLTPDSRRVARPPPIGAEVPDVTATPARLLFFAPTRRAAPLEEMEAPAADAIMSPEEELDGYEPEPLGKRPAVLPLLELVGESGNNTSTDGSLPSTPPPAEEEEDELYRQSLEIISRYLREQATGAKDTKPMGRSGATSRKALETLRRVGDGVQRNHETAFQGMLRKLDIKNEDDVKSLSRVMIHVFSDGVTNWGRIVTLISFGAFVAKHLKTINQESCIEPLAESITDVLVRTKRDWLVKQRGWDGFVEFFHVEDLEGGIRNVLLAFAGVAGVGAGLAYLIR

| percentage fluorescence polarisation inhibition (Mcl-1 FP), partial inhibitors [% @ 10 uM] | SMILES |
| --- | --- |
| 43.2 | CCc1c(-c2c(-c3ccco3)sc3ncnc(O[C@H](Cc4ccccc4OC)C(=O)O)c23)ccc(OCCN2CCN(C)CC2)c1Cl [Example 336, (2R)-2-{[(5Ra)-5-{3-chloro-2-ethyl-4-[2-(4-methylpiperazin-1-yl)ethoxy]phenyl}-6-(furan-2-yl)thieno[2,3-d]pyrimidin-4-yl]oxy}-3-(2-methoxyphenyl)propanoic acid] |
| 18.85 | Cc1c(-c2c(-c3ccco3)sc3ncnc(O[C@@H](C(=O)O)c4ccccc4)c23)ccc(OCCN2CCN(C)CC2)c1Cl [Example 339, (2R)-{[(5Ra)-5-{3-chloro-2-methyl-4-[2-(4-methylpiperazin-1-yl)ethoxy]phenyl}-6-(furan-2-yl)thieno[2,3-d]pyrimidin-4-yl]oxy}(phenyl)ethanoic acid] |

Same assay, conditions: fluorescence polarisation test; Method 2 values are underlined in the patent (underlining not visible here); read-out: IC50 (M) Mcl-1 FP

| IC50 [M] | SMILES |
| --- | --- |
| 8.9e-09 | Cc1c(-c2c(-c3ccc(F)o3)sc3ncnc(OC(Cc4ccccc4OCc4ccnn4C)C(=O)O)c23)ccc(OCCN2CCN(C)CC2)c1Cl [Example 180, (2R)-2-{[(5Sa)-5-{3-chloro-2-methyl-4-[2-(4-methylpiperazin-1-yl)ethoxy]phenyl}-6-(5-fluorofuran-2-yl)thieno[2,3-d]pyrimidin-4-yl]oxy}-3-{2-[(1-methyl-1H-pyrazol-5-yl)methoxy]phenyl}propanoic acid] |
| 4.8e-09 | Cc1c(-c2c(-c3ccc(F)o3)sc3ncnc(OC(Cc4ccccc4OCc4ccnn4C(C)(C)C)C(=O)O)c23)ccc(OCCN2CCN(C)CC2)c1Cl [Example 181, (2R)-3-{2-[(1-tert-butyl-1H-pyrazol-5-yl)methoxy]phenyl}-2-{[(5Sa)-5-{3-chloro-2-methyl-4-[2-(4-methylpiperazin-1-yl)ethoxy]phenyl}-6-(5-fluorofuran-2-yl)thieno[2,3-d]pyrimidin-4-yl]oxy}propanoic acid] |
| 4.4e-09 | Cc1c(-c2c(-c3ccc(F)o3)sc3ncnc(OC(Cc4ccccc4OCc4ccnn4C(C)C)C(=O)O)c23)ccc(OCCN2CCN(C)CC2)c1Cl [Example 182, (2R)-2-{[(5Sa)-5-{3-chloro-2-methyl-4-[2-(4-methylpiperazin-1-yl)ethoxy]phenyl}-6-(5-fluorofuran-2-yl)thieno[2,3-d]pyrimidin-4-yl]oxy}-3-(2-{[1-(propan-2-yl)-1H-pyrazol-5-yl]methoxy}phenyl)propanoic acid] |
| 6e-09 | CCn1nccc1COc1ccccc1CC(Oc1ncnc2sc(-c3ccc(F)o3)c(-c3ccc(OCCN4CCN(C)CC4)c(Cl)c3C)c12)C(=O)O [Example 184, (2R)-2-{[(5Sa)-5-{3-chloro-2-methyl-4-[2-(4-methylpiperazin-1-yl)ethoxy]phenyl}-6-(5-fluorofuran-2-yl)thieno[2,3-d]pyrimidin-4-yl]oxy}-3-{2-[(1-ethyl-1H-pyrazol-5-yl)methoxy]phenyl}propanoic acid] |
| 6.4e-09 | CCCCn1nccc1COc1ccccc1CC(Oc1ncnc2sc(-c3ccc(F)o3)c(-c3ccc(OCCN4CCN(C)CC4)c(Cl)c3C)c12)C(=O)O [Example 188, (2R)-3-{2-[(1-butyl-1H-pyrazol-5-yl)methoxy]phenyl}-2-{[(5Sa)-5-{3-chloro-2-methyl-4-[2-(4-methylpiperazin-1-yl)ethoxy]phenyl}-6-(5-fluorofuran-2-yl)thieno[2,3-d]pyrimidin-4-yl]oxy}propanoic acid] |
| 5.5e-09 | Cc1c(-c2c(-c3ccc(F)o3)sc3ncnc(OC(Cc4ccccc4OCc4cnccn4)C(=O)O)c23)ccc(OCCN2CCN(C)CC2)c1Cl [Example 189, (2R)-2-{[(5Sa)-5-{3-chloro-2-methyl-4-[2-(4-methylpiperazin-1-yl)ethoxy]phenyl}-6-(5-fluorofuran-2-yl)thieno[2,3-d]pyrimidin-4-yl]oxy}-3-[2-(pyrazin-2-ylmethoxy)phenyl]propanoic acid] |
| 9.8e-09 | COc1ccccc1CC(Oc1ncnc2sc(-c3ccco3)c(-c3ccc(OCCN4CCN(C)CC4)c(Cl)c3C)c12)C(=O)O [Example 209, (2R)-2-{[(5Sa)-5-{3-chloro-2-methyl-4-[2-(4-methylpiperazin-1-yl)ethoxy]phenyl}-6-(furan-2-yl)thieno[2,3-d]pyrimidin-4-yl]oxy}-3-(2-methoxyphenyl)propanoic acid] |
| 1.8e-08 | Cc1c(-c2c(-c3ccco3)sc3ncnc(OC(Cc4ccccc4OC4CCCc5cccnc54)C(=O)O)c23)ccc(OCCN2CCN(C)CC2)c1Cl [Example 213, (2R)-2-{[(5Sa)-5-{3-chloro-2-methyl-4-[2-(4-methylpiperazin-1-yl)ethoxy]phenyl}-6-(furan-2-yl)thieno[2,3-d]pyrimidin-4-yl]oxy}-3-[2-(5,6,7,8-tetrahydroquinolin-8-yloxy)phenyl]propanoic acid] |
| 6.2e-09 | Cc1c(-c2c(-c3ccco3)sc3ncnc(OC(Cc4ccccc4OCc4cncn4C)C(=O)O)c23)ccc(OCCN2CCN(C)CC2)c1Cl [Example 276, (2R)-2-{[(5Sa)-5-{3-chloro-2-methyl-4-[2-(4-methylpiperazin-1-yl)ethoxy]phenyl}-6-(furan-2-yl)thieno[2,3-d]pyrimidin-4-yl]oxy}-3-{2-[(1-methyl-1H-imidazol-5-yl)methoxy]phenyl}propanoic acid] |
| 8.8e-09 | COc1ccccc1CC(Oc1ncnc2sc(-c3ccco3)c(-c3ccc(OCCN4CCN(C(C)=O)CC4)c(Cl)c3C)c12)C(=O)O [Example 323, (2R)-2-{[(5Sa)-5-{4-[2-(4-acetylpiperazin-1-yl)ethoxy]-3-chloro-2-methylphenyl}-6-(furan-2-yl)thieno[2,3-d]pyrimidin-4-yl]oxy}-3-(2-methoxyphenyl)propanoic acid] |
| 7.9e-09 | COc1ccccc1CC(Oc1ncnc2sc(-c3ccco3)c(-c3ccc(OCCN4CCN(CC(N)=O)CC4)c(Cl)c3C)c12)C(=O)O [Example 326, (2R)-2-{[(5Sa)-5-(4-{2-[4-(2-amino-2-oxoethyl)piperazin-1-yl]ethoxy}-3-chloro-2-methylphenyl)-6-(furan-2-yl)thieno[2,3-d]pyrimidin-4-yl]oxy}-3-(2-methoxyphenyl)propanoic acid] |
| 2.8e-08 | Cc1c(-c2c(-c3ccco3)sc3ncnc(OC(Cc4cccc(F)c4F)C(=O)O)c23)ccc(OCCN2CCN(C)CC2)c1Cl [Example 350, (2R)-2-{[(5Sa)-5-{3-chloro-2-methyl-4-[2-(4-methylpiperazin-1-yl)ethoxy]phenyl}-6-(furan-2-yl)thieno[2,3-d]pyrimidin-4-yl]oxy}-3-(2,3-difluorophenyl)propanoic acid] |

More lines, now with the values behind:

| SMILES | IC50 [M] |
| --- | --- |
| COc1ccccc1CC(Oc1ncnc2sc(-c3ccco3)c(-c3ccc(OCCN4CC[N+](C)([O-])CC4)c(Cl)c3C)c12)C(=O)O [Example 296, (2R)-2-{[(5Sa)-5-{3-chloro-2-methyl-4-[2-(4-methyl-4-oxidopiperazin-1-yl)ethoxy]phenyl}-6-(furan-2-yl)thieno[2,3-d]pyrimidin-4-yl]oxy}-3-(2-methoxyphenyl)propanoic acid] | 9.3e-09 |
| COc1ccccc1CC(Oc1ncnc2sc(-c3ccco3)c(-c3ccc(OCC[N+]4([O-])CC[N+](C)([O-])CC4)c(Cl)c3C)c12)C(=O)O [Example 297, (2R)-2-{[(5Sa)-5-{3-chloro-2-methyl-4-[2-(4-methyl-1,4-dioxidopiperazin-1-yl)ethoxy]phenyl}-6-(furan-2-yl)thieno[2,3-d]pyrimidin-4-yl]oxy}-3-(2-methoxyphenyl)propanoic acid] | 6.6e-09 |
| COc1ccccc1CC(Oc1ncnc2sc(-c3ccco3)c(-c3ccc(OCC4CNCCO4)c(Cl)c3C)c12)C(=O)O [Example 315, (2R)-2-({(5Sa)-5-[3-chloro-2-methyl-4-(morpholin-2-ylmethoxy)phenyl]-6-(furan-2-yl)thieno[2,3-d]pyrimidin-4-yl}oxy)-3-(2-methoxyphenyl)propanoic acid] | 2.2e-08 |
| COc1ccccc1CC(Oc1ncnc2sc(-c3ccco3)c(-c3ccc(OCCN4CCN(C)C(=O)C4)c(Cl)c3C)c12)C(=O)O [Example 321, (2R)-2-{[(5Sa)-5-{3-chloro-2-methyl-4-[2-(4-methyl-3-oxopiperazin-1-yl)ethoxy]phenyl}-6-(furan-2-yl)thieno[2,3-d]pyrimidin-4-yl]oxy}-3-(2-methoxyphenyl)propanoic acid] | 6e-09 |
| COc1ccccc1CC(Oc1ncnc2sc(-c3ccco3)c(-c3ccc(OCCN4CCN(c5ccccc5)CC4)c(Cl)c3C)c12)C(=O)O [Example 325, (2R)-2-{[(5Sa)-5-{3-chloro-2-methyl-4-[2-(4-phenylpiperazin-1-yl)ethoxy]phenyl}-6-(furan-2-yl)thieno[2,3-d]pyrimidin-4-yl]oxy}-3-(2-methoxyphenyl)propanoic acid] | 5.2e-08 |
| COc1ccccc1CC(Oc1ncnc2sc(-c3ccco3)c(-c3ccc(OCCN4CCN(CC(F)(F)F)CC4)c(Cl)c3C)c12)C(=O)O [Example 327, (2R)-2-{[(5Sa)-5-(3-chloro-2-methyl-4-{2-[4-(2,2,2-trifluoroethyl)piperazin-1-yl]ethoxy}phenyl)-6-(furan-2-yl)thieno[2,3-d]pyrimidin-4-yl]oxy}-3-(2-methoxyphenyl)propanoic acid] | 1.5e-08 |
| COc1ccccc1CC(Oc1ncnc2sc(-c3ccco3)c(-c3ccc(OC(=O)CN4CCN(C)CC4)c(Cl)c3C)c12)C(=O)O [Example 332, (2R)-2-{[(5Sa)-5-(3-chloro-2-methyl-4-{[(4-methylpiperazin-1-yl)acetyl]oxy}phenyl)-6-(furan-2-yl)thieno[2,3-d]pyrimidin-4-yl]oxy}-3-(2-methoxyphenyl)propanoic acid] | 1.3e-08 |
| Cc1c(-c2c(-c3ccco3)sc3ncnc(OC(C(=O)O)c4ccccc4)c23)ccc(OCCN2CCN(C)CC2)c1Cl [Example 340, (2R)-{[(5Sa)-5-{3-chloro-2-methyl-4-[2-(4-methylpiperazin-1-yl)ethoxy]phenyl}-6-(furan-2-yl)thieno[2,3-d]pyrimidin-4-yl]oxy}(phenyl)ethanoic acid] | 6.7e-07 |
